Like-named read-outs stand apart in the source and are kept apart here.
Legend:
[1] = tested on: BT474; assay: Antitumor bioactivity evaluation, breast cancer cells (ATPlite); assay type: cell-based; settings: Homo sapiens, BT-474; for inhibition at 5 µM: test sample 5 μM, 72 hours, read-out: Inhibitory Rate % BT474
In short: (§1)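 Single-concentration screen: 5 μM compound, or 5 μM compound plus 1 μM lapatinib, on adhered cells (5000/well) for 72 h. Viability by ATPlite luminescence relative to solvent control.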

[2] = tested on: MDA-MB-361; assay: as above; assay type: cell-based; settings: Homo sapiens, test sample 5 μM, 72 hours, read-out: Inhibitory Rate % MDA-MB-361
In short: as §1

[3] = tested on: MDA-MB-453; assay: as above; assay type: cell-based; settings: Homo sapiens, test sample 5 μM, 72 hours, read-out: Inhibitory Rate % MDA-MB-453
In short: as §1

[4] = tested on: SK-BR3; assay: as above; assay type: cell-based; settings: Homo sapiens, SK-BR-3; test sample 5 μM, 72 hours; read-out: Inhibitory Rate % SK-BR3
In short: as §1

[5] = tested on: SK/Lap^R1.0; assay: as above; assay type: cell-based; settings: Homo sapiens; test sample 5 μM, 72 hours; read-out: Inhibitory Rate % SKLap^R1.0
In short: as §1

[6] = tested on: BT/Lap^R1.0; assay: as above; assay type: cell-based, human; settings: for inhibition at 5 µM: test sample 5 μM, 72 hours, read-out: Inhibitory Rate % BT/Lap^R1.0
In short: as §1

[7] = tested on: mice; assay: Acute toxicity experiment with single intragastric administration to mice; assay type: in vivo; settings: for Quantity of animals (survival/death): 14 d observation
Protocol: Acute toxicity experiment with single intragastric administration to mice of the compound of Example 36 according to the following method
(2) Preparation of test sample: a suitable amount of sample was weighed, and suspended in 0.5% CMC-Na, followed by vortex vibration till uniform. The resulting suspension was fully vibrated before administration.
According to the results of pre-experiment, experiment was conducted using Fixed-dose procedure. 70 mice were randomly divided into 7 groups, 10 mice each group, male and female in half. The administration doses were respectively: 1555, 1296, 1080, 900, 750, 625 and 520 mg/kg, and observation of the animals after administration continued for 14 days.
Observation was conducted once 5 min, 10 min, 20 min, 30 min, 1 h, 2 h, 4 h, 6 h, 8 h, 12 h, 18 h, 1 d, 2 d, 3 d, 7 d and 14 d respectively after administration, to record the animal death and toxic response.
LD50 was calculated by statistical analysis using SAS software.
2. Calculation of LD50 Using Bliss Method

[8] = tested on: COLO205; assay: Extended test against tumor cell lines (ATPlite); assay type: cell-based; settings: COLO205 (colorectal cancer), 72 hours
In short: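 Relative cell survival, calculated from ATPlite RLU against medium-only wells, following 72 h incubation with compound (final 4 to 0.016 μM, five levels, triplicate) at 37 °C on cells seeded at 5000 per well.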

[9] = tested on: tumor cells and normal cells (12 kinds of cells); assay: Extended test against tumor cell lines, statements on the whole panel; assay type: cell-based; settings: for inhibition of tumor cells versus cytotoxicity to normal cells: 12 kinds of cells, 0.016-4 μM, 72 hours
Protocol: The compounds of Examples 36/37/40/47/49 were used to carry out extended test against tumor cell lines, wherein 12 kinds of cells were selected, including liver cancer cells, gastric cancer cells, pancreatic cancer cells, colorectal cancer cells, lung cancer cells and normal cells, which were shown in Table 12:
A 100 mm culture dish with overgrown adherent cells was digested with 1 ml 0.25% trypsin (GIBCO) at 37° C. for 5 min, and the reaction was terminated with 2 ml culture medium (containing 10% FBS, GIBCO). The cells were scattered and collected, after counting, diluted to 1×10^5 cells/ml, and seeded into a 96-well plate at 50 μl/well, 5000 cells/well, excluding the peripheral circle of wells in which no cell was added, but PBS was added, 54 wells in total, and then incubated at 37° C. for 24 hours for adhering.
The test sample was diluted to final concentration of 4, 1, 0.25, 0.063, 0.016 μM, culture medium was filled in control well, 3 parellel wells were set for each concentration, 50 μl each well, followed by incubation at 37° C. for 72 hours.
3) Test after incubation at 37° C. for 72 hours: 50 μL of ATPlite kitsubstrate solution was added in each well, and vibrated for 3 min, followed by placing aside in darkness for 10 min, and then supernatant 100 μl/well was taken and placed on a luminescence test plate; the luminescence test plate that has been fully incubated was placed in a luminescence test instrument, to read luminescence value.
Cell survival rate (%)=Experimental group RLU/control group RLU×100%. The experimental data were subjected to data analysis and processing by utilizing GraphPad software.

SMILES: CSc1nccc(N2CCC(N(C)Cc3ccc(C#N)cc3)CC2)n1 [Example 36, N-methyl-N-(4-cyanobenzyl)-N-[1-(2-methylthiopyrimidin-4-yl)piperidin-4-yl]amine]
- IC50 [1]: 1410 nM
- inhibition at 5 µM [1]: 75.5%
- inhibition at 5 µM [2]: 46.9%
- inhibition at 5 µM [3]: 82.4%
- inhibition at 5 µM [4]: 83.4%
- inhibition at 5 µM [5]: 86.1%
- IC50 [6]: 1470 nM
- IC50 ([6]; Homo sapiens): 1410 nM
- inhibition at 5 µM ([6]; Homo sapiens): 76.2%
- Quantity of animals (survival/death) ([7]; 520 mg/kg, Female): 5/0
- Quantity of animals (survival/death) ([7]; 520 mg/kg, Male): 5/0
- Quantity of animals (survival/death) ([7]; 625 mg/kg, Female): 5/0
- Quantity of animals (survival/death) ([7]; 625 mg/kg, Male): 4/1
- Quantity of animals (survival/death) ([7]; 750 mg/kg, Female): 2/3
- Quantity of animals (survival/death) ([7]; 750 mg/kg, Male): 4/1
- Quantity of animals (survival/death) ([7]; 900 mg/kg, Female): 2/3
- Quantity of animals (survival/death) ([7]; 900 mg/kg, Male): 3/2
- Quantity of animals (survival/death) ([7]; 1080 mg/kg, Female): 2/3
- Quantity of animals (survival/death) ([7]; 1080 mg/kg, Male): 0/5
- Quantity of animals (survival/death) ([7]; 1296 mg/kg, Female): 0/5
- Quantity of animals (survival/death) ([7]; 1296 mg/kg, Male): 1/4
- first animal death, time after administration ([7]; 1555 mg/kg dose group): 5 min
- Quantity of animals (survival/death) ([7]; 1555 mg/kg, Female): 0/5
- Quantity of animals (survival/death) ([7]; 1555 mg/kg, Male): 0/5
- gross anatomical examination ([7]; animals dead during or killed at end of the experiment): No obvious abnormality was found
- survival of the dose group ([7]; mouse, in vivo): all survived
- clinical manifestations of animal poisoning ([7]; single intragastric administration, 520-1555 mg/kg): muscle tremors, convulsions, eye closed, curled up into a ball, erected hair, reduced activity, loss of appetite
- LD50 and 95% confidence limit ([7]; single intragastric administration, mice, Bliss method, SAS): 869.0 (776.5-969.4) mg/kg
- Survival rate ([8]; 0.016 μM): 96.7%
- Survival rate ([8]; 0.063 μM): 96.9%
- Survival rate ([8]; 0.25 μM): 95.3%
- Survival rate ([8]; 1 μM): 84.5%
- Survival rate ([8]; 4 μM): 4.9%
- inhibition of tumor cells versus cytotoxicity to normal cells [9]: certain inhibition and cytotoxicity to either tumor cells or normal cells, without significant difference

SMILES: CSc1nccc(N2CCC(N(C)Cc3c(F)cccc3Cl)CC2)n1 [Example 37, N-methyl-N-(2-fluoro-6-chlorobenzyl)-N-[1-(2-methylthiopyrimidin-4-yl)piperidin-4-yl]amine]
- IC50 [1]: 1040 nM
- inhibition at 5 µM [1]: 75.5%
- inhibition at 5 µM [2]: 55.9%
- inhibition at 5 µM [3]: 84.2%
- inhibition at 5 µM [4]: 78.9%
- inhibition at 5 µM [5]: 78.3%
- IC50 ([6]; Homo sapiens): 940 nM
- inhibition at 5 µM ([6]; Homo sapiens): 70.7%
- Survival rate ([8]; 0.016 μM): 100.1%
- Survival rate ([8]; 0.063 μM): 97.5%
- Survival rate ([8]; 0.25 μM): 100.4%
- Survival rate ([8]; 1 μM): 94.5%
- Survival rate ([8]; 4 μM): 12.9%
- inhibition of tumor cells versus cytotoxicity to normal cells [9]: slightly stronger inhibition to liver cancer than that to other tumor cells, and exhibited cytotoxicity to normal cells lower than inhibition to tumor cells

SMILES: CSc1nccc(N2CCC(N(C)Cc3ccc(Cl)cc3Cl)CC2)n1 [Example 40, N-methyl-N-(2,4-dichlorobenzyl)-N-[1-(2-methylthiopyrimidin-4-yl)piperidin-4-yl]amine]
- IC50 [1]: 1620 nM
- inhibition at 5 µM [1]: 74.2%
- inhibition at 5 µM [2]: 64.1%
- inhibition at 5 µM [3]: 68.7%
- inhibition at 5 µM [4]: 87.6%
- inhibition at 5 µM [5]: 80.7%
- IC50 ([6]; Homo sapiens): 1680 nM
- inhibition at 5 µM ([6]; Homo sapiens): 68.1%
- Survival rate ([8]; 0.016 μM): 96.2%
- Survival rate ([8]; 0.063 μM): 98.2%
- Survival rate ([8]; 0.25 μM): 98.6%
- Survival rate ([8]; 1 μM): 91.9%
- Survival rate ([8]; 4 μM): 30.3%
- inhibition of tumor cells versus cytotoxicity to normal cells [9]: slightly stronger inhibition to liver cancer than that to other tumor cells, and exhibited cytotoxicity to normal cells lower than inhibition to tumor cells

SMILES: CSc1nccc(N2CCC(N(C)Cc3ccccc3Cl)CC2)n1 [Example 47, N-methyl-N-(2-chlorobenzyl)-N-[1-(2-methylthiopyrimidin-4-yl)piperidin-4-yl]amine]
- IC50 [1]: 1990 nM
- inhibition at 5 µM [1]: 60.4%
- inhibition at 5 µM [2]: 27.7%
- inhibition at 5 µM [3]: 66.2%
- inhibition at 5 µM [4]: 31.7%
- inhibition at 5 µM [5]: 16.6%
- IC50 ([6]; Homo sapiens): 1700 nM
- inhibition at 5 µM ([6]; Homo sapiens): 58.1%
- Survival rate ([8]; 0.016 μM): 98.2%
- Survival rate ([8]; 0.063 μM): 96.7%
- Survival rate ([8]; 0.25 μM): 97.9%
- Survival rate ([8]; 1 μM): 96.1%
- Survival rate ([8]; 4 μM): 23.3%
- inhibition of tumor cells versus cytotoxicity to normal cells [9]: slightly stronger inhibition to liver cancer than that to other tumor cells, and exhibited cytotoxicity to normal cells lower than inhibition to tumor cells
- effect compared with the compounds of other Examples ([9]; Examples 36/37/40/47/49 compared): effect superior to that of the compounds of other Examples

SMILES: CSc1nccc(N2CCC(N(C)Cc3c(Cl)cccc3Cl)CC2)n1 [Example 49, N-methyl-N-(2,6-dichlorobenzyl)-N-[1-(2-methylthiopyrimidin-4-yl)piperidin-4-yl]amine]
- IC50 [1]: 780 nM
- inhibition at 5 µM [1]: 61.5%
- inhibition at 5 µM [2]: 30.1%
- inhibition at 5 µM [3]: 68.9%
- inhibition at 5 µM [4]: 19.7%
- inhibition at 5 µM [5]: 13.5%
- IC50 ([6]; Homo sapiens): 700 nM
- inhibition at 5 µM ([6]; Homo sapiens): 58.8%
- Survival rate ([8]; 0.016 μM): 98.1%
- Survival rate ([8]; 0.063 μM): 94.2%
- Survival rate ([8]; 0.25 μM): 95.8%
- Survival rate ([8]; 1 μM): 83.9%
- Survival rate ([8]; 4 μM): 4.1%
- inhibition of tumor cells versus cytotoxicity to normal cells [9]: certain inhibition and cytotoxicity to either tumor cells or normal cells, without significant difference
